Laboratory results reported in US20090068207A1, “Compositions Containing Beta 2-Glycoprotein I-Derived Peptides for the Prevention and/or Treatment of Vascular Disease” (Vascular Biogenics Ltd., priority 2005, published 2009).
“And” between values parts separate entries of the source, which are not always exact repeats. Equal entries are not always repeated.

Columns and labels:
LDL-RD mice [1] = assay: Aortic sinus lesion area after intraperitoneal immunization with incomplete Freund's adjuvant; assay type: in vivo; settings: for Aortic sinus lesion (μm^2): End, intraperitoneal with incomplete Freund's adjuvant, head 100 μg, mean ± S.E
Protocol: Intraperitoneal immunization with human β2GPI-derived peptides: human β2GPI-derived peptides were dissolved in PBS and mixed with equal volumes of Freund's incomplete adjuvant. […] One week following the last immunization, the diet was switched from chow to atherogenic “Western” diet for five weeks, and then the mice were sacrificed.
(§1) Assessment of Atherosclerosis: Quantification of atherosclerotic fatty streak lesions was done by calculating the lesion size in the aortic sinus as previously described (16) and by calculating the lesion size in the aorta. Briefly, after perfusion with saline Tris EDTA, the heart and the aorta were removed from the animals and the peripheral fat cleaned carefully. The upper section of the heart was embedded in OCT medium (10.24% w/w polyvinyl alcohol; 4.26% w/w polyethylene glycol; 85.50% w/w nonreactive ingredients) and frozen. Every other section (10 μm thick) throughout the aortic sinus (400 μm) was taken for analysis. The distal portion of the aortic sinus was recognized by the three valve cusps that are the junctions of the aorta to the heart. […] Lesion areas per section were scored on a grid (17) by an observer counting unidentified, numbered specimens. The aorta was dissected from the heart and surrounding adventitious tissue was removed. Fixation of the aorta and Sudan staining of the vessels were performed as previously described (21).
Immunization with Human β2GPI-derived peptides mildly attenuates the early atherogenesis in LDL RD mice: In order to compare the effects of different modes of administration of human β2GPI-derived peptides on atherosclerosis, human β2GPI-derived peptides and human β2GPI were administered intraperitoneally (IP) with incomplete Freund's adjuvant, in LDL RD mice, effectively immunizing the mice, as opposed to the tolerance effected by mucosal administration.
Data presented in FIG. 11, and Table 7, clearly indicates a non-specific inhibitory effect of immunization (see PBS vs Non-immunized) on the size of the aortic sinus lesions in the susceptible LDL RD mice. On an average, immunization with the human β2GPI-derived peptides was equally, if not more, effective in inhibiting atherogenesis as immunization with human β2GPI, or with PBS prepared in incomplete Freund's adjuvant. In contrast to the protection achieved with mucosal administration, the different peptides S-1, S-2, S-3 and S-4 provided widely divergent, and diminished (34% or less) degrees of protection, as compared with controls.

ApoE-KO mice [2] = assay: Aortic sinus lesion area after oral administration in ApoE-KO mice; assay type: in vivo; settings: oral 50 μg, 5 doses
From the text: as §1, with “Fixation of the aorta and Sudan staining of the vessels were performed as previously described (21).” left out
In order to determine the protective effect of mucosal administration of β2GPI on development of atherosclerosis, adult ApoE-KO mice were treated with oral administration of human β2GPI. […] Lesion area calculated from cryosections of the aortic sinus were compared between control untreated 20 week old mice, and mice following 16 weeks oral administration of β2GPI or PBS. […]

LDL-RD mice [3] = assay: Aortic sinus lesion area after oral administration, Western diet; assay type: in vivo; settings: for Aortic sinus lesion (μm^2): End, oral 100 μg, mean ± S.E
Protocol: Oral Tolerance: For comparison, oral tolerance to plaque-associated molecules was induced by feeding […] of antigen every other day (for a detailed account of induction of oral tolerance, see U.S. patent application Ser. No. 09/806,400 to Shoenfeld et al filed Sep. 30, 1999), in a similar regimen to the nasal tolerance. LDL-RD mice were fed by a nasogastric tube, five doses (every other day) of human or bovine β2GPI in PBS in two different concentrations (500 and 50 μg/dose).
Oral tolerance to β2GPI-derived peptides, alone or in combination was induced by feeding 100 μg of the peptides (prepared in PBS, 0.2 ml), as detailed hereinabove, every other day for a total of 5 doses of 100 μg. One day following the last feeding, all mice were switched from chow-diet to an atherogenic “Western” diet and sacrificed five weeks later.
as §1
LDL-receptor deficient (LDL-RD; LDLR −/−) mice created on a C57BL/6 background develop accelerated atherosclerosis when fed a high cholesterol diet, but not when fed a regular chow diet. In order to determine whether mucosal administration of the plaque antigen β2GPI could suppress atherogenic processes, LDL-RD mice were fed low, oral tolerance inducing doses of human and bovine β2GPI, and the assessed for alterations in response to diet.

ApoE-KO mice [4] = assay: Aortic sinus lesion area after nasal administration in ApoE-KO mice; assay type: in vivo; settings: End, nasal 10 μg/mouse, mean ± S.E
Protocol: Nasal Tolerance: Nasal tolerance was induced by intranasal administration of oxidized LDL, β2GPI, β2GPI-derived peptides or HSP65, in a total volume of 10 μl PBS. Intranasal administration was performed on mildly sedated mice (12-16 weeks old), each mouse receiving […] of antigen per dose, in the indicated concentrations, every other day. Atherogenesis was induced by 5 weeks of a Western diet initiated on the day following the last intranasal administration, or assessed (in Apo E KO mice) after 8 weeks on a chow diet. Controls received equal amounts of BSA and/or PBS, as indicated, in an identical regimen. Plasma was obtained for assessment of cholesterol and triglyceride levels from all mice, and the mice were sacrificed for evaluation of atherosclerosis, as described hereinbelow, after 5 weeks Western diet, or (in Apo E KO mice) after 8 weeks on a chow diet.
Assessment of Atherosclerosis: Quantification of atherosclerotic fatty streak lesions was done by calculating the lesion size in the aortic sinus as previously described (16) and by calculating the lesion size in the aorta. Briefly, after perfusion with saline Tris EDTA, the heart and the aorta were removed from the animals and the peripheral fat cleaned carefully. […] Lesion areas per section were scored on a grid (17) by an observer counting unidentified, numbered specimens. […]

lymph node cells = assay: Lymph node cell proliferation (stimulation index) to oxLDL after oral administration; assay type: in vivo, mice; settings: oral, LDL-RD mice immunized with OxLDL; for reduction in Stimulation Index of OxLDL-sensitized lymph node cells / Stimulation index / effect on Stimulation Index of sensitized lymph node cells in response to OxLDL: 3 doses of 100 μg; for Stimulation index: OxLDL challenge, mean ± S.E.
Protocol: Proliferation was measured by the incorporation of [^3H] thymidine into DNA during the final 12 h of incubation. The results were computed as stimulation index: the ratio of the mean cpm of the antigen to the mean background cpm obtained in the absence of the antigen.
[…] Three days after the final administration of peptides, the mice were immunized with OxLDL in incomplete Freund's adjuvant, as described in the Examples above, and lymph node cells assessed for antigen (OxLDL) stimulation of proliferation 10 days later. Proliferation was assessed by incorporation of thymidine, expressed as the Stimulation Index, as described.

LDL-RD mice [5] = assay: Aortic sinus lesion area after nasal tolerance induction, Western diet; assay type: in vivo
Protocol: Nasal Tolerance: Nasal tolerance was induced by intranasal administration of oxidized LDL, β2GPI, β2GPI-derived peptides or HSP65, in a total volume of 10 μl PBS. Intranasal administration was performed on mildly sedated mice (12-16 weeks old), each mouse receiving 3 doses of antigen per dose, in the indicated concentrations, every other day. Atherogenesis was induced by 5 weeks of a Western diet initiated on the day following the last intranasal administration, or assessed (in Apo E KO mice) after 8 weeks on a chow diet. Controls received equal amounts of BSA and/or PBS, as indicated, in an identical regimen. Plasma was obtained for assessment of cholesterol and triglyceride levels from all mice, and the mice were sacrificed for evaluation of atherosclerosis, as described hereinbelow, after 5 weeks Western diet, or (in Apo E KO mice) after 8 weeks on a chow diet.
Assessment of Atherosclerosis: Quantification of atherosclerotic fatty streak lesions was done by calculating the lesion size in the aortic sinus as previously described (16) and by calculating the lesion size in the aorta. Briefly, after perfusion with saline Tris EDTA, the heart and the aorta were removed from the animals and the peripheral fat cleaned carefully. The upper section of the heart was embedded in OCT medium (10.24% w/w polyvinyl alcohol; 4.26% w/w polyethylene glycol; 85.50% w/w nonreactive ingredients) and frozen. Every other section (10 μm thick) throughout the aortic sinus (400 μm) was taken for analysis. The distal portion of the aortic sinus was recognized by the three valve cusps that are the junctions of the aorta to the heart. Sections were evaluated for fatty streak lesions after processing and staining with oil-red O, according to Paigen et al (Atherosclerosis, 1987; 68:231-40). Lesion areas per section were scored on a grid (17) by an observer counting unidentified, numbered specimens. The aorta was dissected from the heart and surrounding adventitious tissue was removed. Fixation of the aorta and Sudan staining of the vessels were performed as previously described (21).
Mice were bled prior to feeding (Time 0) and at the conclusion of the experiment (End) for determination of lipid profile. Atherosclerosis was assessed in heart and aorta as described above, 8 weeks after the last feeding. Mice were weighed every 2 weeks during the experiment. All mice were fed water ad libitum and a normal chow-diet containing 4.5% fat by weight (0.02% cholesterol), up to the final antigen exposure, and then a “Western” diet until sacrifice.
Thus, nasal exposure to a low dose and an exceedingly low dose of recombinant human HSP 65 were compared for their effectiveness in suppressing atherogenesis in LDL-RD mice. 58 male 12-16 week old LDL-RD mice were divided into 4 groups.

MLHGDKVSFFCKNKEKKCSYT [Peptide S-4] was tested, and the “Aortic sinus lesion (μm^2)” value (LDL-RD mice [1]) was 23758 ± 5767 μm^2, the “Aortic sinus lesion (μm^2)” value (ApoE-KO mice [2]; End, ApoE-KO mice) was 81923 ± 9191 μm^2 and the “reduction of progression of atherosclerotic lesions compared to PBS controls” value (ApoE-KO mice [2]; then 8 weeks of chow diet, 10-11 week-old ApoE-KO mice) was over 50%. For the same substance, the “Aortic sinus lesion (μm^2)” value (LDL-RD mice [3]) was 21125 ± 2482 μm^2, the “reduction of atherosclerosis (aortic sinus lesion size) as compared with BSA- and PBS-fed controls” value (LDL-RD mice [3]; oral 100 μg/dose, 5 doses, Western diet 5 weeks) was 61% and the “Aortic sinus lesion (μm^2)” value (ApoE-KO mice [4]) was 107953 ± 10158 μm^2. For the same substance, the “reduction in Stimulation Index of OxLDL-sensitized lymph node cells” value (lymph node cells) was 94% and the Stimulation index (lymph node cells) was 17 ± 10.

ECLPQHAMFGNDTITCTTHGN [Peptide S-2] was tested, and the “Aortic sinus lesion (μm^2)” value (LDL-RD mice [1]) was 24050 ± 7755 μm^2, the “Aortic sinus lesion (μm^2)” value (LDL-RD mice [3]) was 23636 ± 3857 μm^2 and the “effect on Stimulation Index of sensitized lymph node cells in response to OxLDL” value (lymph node cells) was “mildly reduced”. It also gave a Stimulation index (lymph node cells) of 168 ± 72.

GDKVSFFCKNKE [Peptide S-4-4] was tested, and the “decrease of Stimulation Index as compared with PBS-treated controls” value (lymph node cells; 5 doses of 100 μg, OxLDL stimulation) was ~50% and ~60%.

With SCKVPVKKATVVYQGERVKIQ [Peptide S-3] the “Aortic sinus lesion (μm^2)” value (LDL-RD mice [1]) was 45329 ± 14667 μm^2, the “anti-atherogenic effect as compared to PBS+IFA” value (LDL-RD mice [1]; intraperitoneal immunization) was “without any significant anti-atherogenic effect” and the “Aortic sinus lesion (μm^2)” value (LDL-RD mice [3]) was 29269 ± 3307 μm^2. For the same substance, the “reduction in Stimulation Index of OxLDL-sensitized lymph node cells” value (lymph node cells) was 93% and the Stimulation index (lymph node cells) was 20 ± 6.

In the case of “HSP-65: recombinant mycobacterial heat shock protein HSP 65”, the “Aortic sinus lesion (μm^2)” value (LDL-RD mice [5]; END, intranasal 10 μg/mouse every other day for 5 days, then Western diet, mean ± S.E) is reported as 44375 ± 5437 μm^2 and the protection from atherogenesis (LDL-RD mice [5]; nasal, exceedingly low doses (1 μg/mouse)) is reported as “approximately 70%”.

In the case of VCPFAGILENGAVRYTTFEY [Peptide S-1], the “Aortic sinus lesion (μm^2)” value (LDL-RD mice [1]) is reported as 29968 ± 6032 μm^2, the “Aortic sinus lesion (μm^2)” value (LDL-RD mice [3]) is reported as 26750 ± 4698 μm^2 and the “effect on Stimulation Index of sensitized lymph node cells in response to OxLDL” value (lymph node cells) is reported as “mildly reduced”. For the same substance, the Stimulation index (lymph node cells) was 246 ± 79.
